Values quoted from earlier work, collected in publication PMC9175271, “Live-cell microscopy or fluorescence anisotropy with budded baculoviruses—which way to go with measuring ligand binding to M4 muscarinic receptors?” (Open Biology, 2022).

Biological target: M4 receptor
Conditions: mean of literature values, per ligand as in column ref.; ref [50], [63], [74]–[89]

CN1[C@@H]2C[C@@H](OC(=O)[C@H](CO)c3ccccc3)C[C@H]1[C@@H]1O[C@@H]12 [scopolamine]
pKi ± s.e.m. (radioligand): 9.28 ± 0.19
